In one data set the test system is A549 (lung carcinoma). The experiment in a line: A549 WST assay (cell growth / cell viability). The format is cell-based, human. The following applies: for IC50: Homo sapiens; for effect on cell growth and cell viability of A549: A549 in vitro, result in words.
In the next data set the test system is U87MG (glioblastoma). The experiment in a line: U-87 MG WST assay (cell growth / cell viability). It counts as cell-based, human. The following applies: for IC50: Homo sapiens; for effect on cell growth and cell viability of U87MG: U87MG in vitro, result in words.
Setting [1] is: A549 (lung carcinoma), summary, FIG. 1 / Discussion, read-out: IC50, inhibition of growth in vitro of A549.
Where [2] appears, read: first A549 WST assay, FIG. 2, read-out: IC50, first A549 WST assay.
Setting [3] is: second A549 WST assay, FIG. 3, read-out: IC50, second A549 WST assay.
Setting [4] is: U-87 MG, U87MG (glioblastoma), summary, FIG. 1 / Discussion, read-out: IC50, inhibition of growth in vitro of U87MG.
The mark [5] stands for this setting: first U-87 MG WST assay, FIG. 4, read-out: IC50, first U-87 MG WST assay.
Where [6] appears, read: second U-87 MG WST assay, FIG. 5, read-out: IC50, second U-87 MG WST assay.
The mark [7] stands for this setting: listed as N-ethyl derivative of sanguinarine.

Results on five compounds are retold here after US20160009727A1, “SA[…] PP2C INHIBITORS FOR CANCER TREATMENT” (Lixte Biotechnology, Inc., priority 2013, published 2016).

The structures appear in SMILES notation. Like-named read-outs stand apart in the source and are kept apart here.

Consider `c1c2c(cc3c1OCO3)-c1ncc3c4c(ccc3c1CC2)OCO4` [Compound 14, 11,12-Dihydro-2,3,7,8-bismethylenedioxybenzo[c]phenanthridine], for which the melting point (in general, the temperature, or range, at which the solid turns liquid) is 246 to 247 °C. The IC50 (usually the midpoint of a concentration-inhibition curve) in the data set with A549 (lung carcinoma) (setting [1]) is more than 10000 nM. The IC50 in the data set on A549 (lung carcinoma) (setting [2]) is more than 10000 nM. Moreover, the IC50 in the data set with A549 (lung carcinoma) (setting [3]) was more than 10000 nM. In addition, in the data set with U87MG (glioblastoma) (setting [4]), the IC50 is more than 10000 nM. In the data set with U87MG (glioblastoma) (setting [5]), the IC50 was more than 10000 nM. In addition, the IC50 with U87MG (glioblastoma) (setting [6]) was more than 10000 nM.
As to `c1cc2c(cnc3c4cc5c(cc4ccc23)OCO5)c2c1OCO2` [Compound 15, 2,3,7,8-bismethylene-dioxybenzo[c]-phenanthridine], the melting point is 270 to 272 °C. For the same compound, the IC50 with A549 (lung carcinoma) (setting [1]) was more than 10000 nM. Further, the IC50 in the data set with A549 (lung carcinoma) (setting [2]) is more than 10000 nM. Besides, the IC50 with A549 (lung carcinoma) (setting [3]) was more than 10000 nM. Also, the IC50 in the data set with U87MG (glioblastoma) (setting [4]) is more than 10000 nM. The IC50 in the data set with U87MG (glioblastoma) (setting [5]) is more than 10000 nM. The IC50 in the data set with U87MG (glioblastoma) (setting [6]) was more than 10000 nM.
In the case of `CC[n+]1cc2c3c(ccc2c2ccc4cc5c(cc4c21)OCO5)OCO3.[Cl-]` [Compound 17, N-Ethyl Derivative of Sanguinarine], the melting point lay within 258 to 259 °C. In the data set with A549 (lung carcinoma), the “effect on cell growth and cell viability of A549” value is “inhibits cell growth and reduces cell viability”. Also, the “effect on cell growth and cell viability of A549” value with A549 (lung carcinoma) (setting [7]) is listed as “inhibited cell growth”. In the data set with A549 (lung carcinoma) (setting [1]), the IC50 was approximately 1600 nM. For the same compound, in the data set with A549 (lung carcinoma) (setting [2]), the concentration for half-maximal inhibition (IC50) was approximately 1600 nM. The concentration for half-maximal inhibition (IC50) in the data set on A549 (lung carcinoma) (setting [3]) is approximately 1600 nM. The IC50 in the data set on U87MG (glioblastoma) (setting [4]) is approximately 3300 nM. Also, the IC50 in the data set on U87MG (glioblastoma) (setting [5]) was approximately 3300 nM. In addition, the IC50 in the data set with U87MG (glioblastoma) (setting [6]) is approximately 3300 nM. In addition, the “effect on cell growth and cell viability of U87MG” value in the data set with U87MG (glioblastoma) was “inhibits cell growth and reduces cell viability”. In addition, in the data set with U87MG (glioblastoma) (setting [7]), the “effect on cell growth and cell viability of U87MG” value is given as “inhibited cell growth”.
As for `CC[C@@]1(O)C(=O)OCc2c1cc1n(c2=O)Cc2cc3c(CN(C)C)c(O)ccc3nc2-1` [Topotecan, reference compound], the IC50 in the data set on A549 (lung carcinoma) (setting [1]) is 200 nM; in the data set on A549 (lung carcinoma) (setting [2]) it was approximately 200 nM; in the data set on A549 (lung carcinoma) (setting [3]), approximately 200 nM; with U87MG (glioblastoma) (setting [4]), 300 nM; with U87MG (glioblastoma) (setting [5]), approximately 300 nM; in the data set with U87MG (glioblastoma) (setting [6]), approximately 300 nM.
On to `C[n+]1cc2c3c(ccc2c2ccc4cc5c(cc4c21)OCO5)OCO3` [sanguinarine, 13-methyl-[1,3]benzodioxolo[5,6-c]-1,3-dioxolo[4,5-i]phenanthridinium, reference compound], for which the IC50 worked out at 800 nM in the data set on A549 (lung carcinoma) (setting [1]); 800 nM with A549 (lung carcinoma) (setting [2]); 800 nM in the data set on A549 (lung carcinoma) (setting [3]); 2000 nM in the data set with U87MG (glioblastoma) (setting [4]); 2000 nM in the data set on U87MG (glioblastoma) (setting [5]); 2000 nM in the data set with U87MG (glioblastoma) (setting [6]).
